Target: T1, Protein kinase C zeta type (Rattus norvegicus, UniProt P09217)
T1 sequence (P09217 whole entry): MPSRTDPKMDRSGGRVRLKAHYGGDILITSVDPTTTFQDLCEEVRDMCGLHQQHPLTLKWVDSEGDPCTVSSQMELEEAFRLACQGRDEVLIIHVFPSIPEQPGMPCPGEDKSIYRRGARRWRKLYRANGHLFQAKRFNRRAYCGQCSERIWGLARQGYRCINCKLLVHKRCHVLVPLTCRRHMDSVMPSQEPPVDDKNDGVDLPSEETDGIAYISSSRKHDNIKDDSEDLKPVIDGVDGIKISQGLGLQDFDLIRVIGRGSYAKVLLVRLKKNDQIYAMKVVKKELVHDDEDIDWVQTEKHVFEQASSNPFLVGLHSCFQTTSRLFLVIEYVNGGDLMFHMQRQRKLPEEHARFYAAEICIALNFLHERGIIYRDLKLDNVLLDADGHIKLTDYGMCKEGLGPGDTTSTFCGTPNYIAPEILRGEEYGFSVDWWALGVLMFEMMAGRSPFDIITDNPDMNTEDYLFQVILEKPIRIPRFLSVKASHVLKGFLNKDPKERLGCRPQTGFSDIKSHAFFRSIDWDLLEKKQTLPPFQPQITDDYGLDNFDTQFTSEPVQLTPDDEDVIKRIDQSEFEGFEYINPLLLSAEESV
Assay: Inhibition of Protein kinase C isolated from rat brain

IC50 | Compound
22.2 µM | CCCCCCCCCCC#Cc1cccc([C@@H](O)[C@@H](N)CO)c1
23.4 µM | CCCCCCCCCCCCC/C=C/[C@@H](O)[C@@H](N)CO [(E,2S,3R)-2-azanyloctadec-4-ene-1,3-diol]

— BindingDB's records for doi:10.7270/Q2WS8WDS (n/a, 1995)
